This assay deals with T1, human PAH with the R408W mutation (Homo sapiens, UniProt P00439, R408W).
T1 construct: expressed in transfected cells
T1 sequence (P00439 1-452 R408W): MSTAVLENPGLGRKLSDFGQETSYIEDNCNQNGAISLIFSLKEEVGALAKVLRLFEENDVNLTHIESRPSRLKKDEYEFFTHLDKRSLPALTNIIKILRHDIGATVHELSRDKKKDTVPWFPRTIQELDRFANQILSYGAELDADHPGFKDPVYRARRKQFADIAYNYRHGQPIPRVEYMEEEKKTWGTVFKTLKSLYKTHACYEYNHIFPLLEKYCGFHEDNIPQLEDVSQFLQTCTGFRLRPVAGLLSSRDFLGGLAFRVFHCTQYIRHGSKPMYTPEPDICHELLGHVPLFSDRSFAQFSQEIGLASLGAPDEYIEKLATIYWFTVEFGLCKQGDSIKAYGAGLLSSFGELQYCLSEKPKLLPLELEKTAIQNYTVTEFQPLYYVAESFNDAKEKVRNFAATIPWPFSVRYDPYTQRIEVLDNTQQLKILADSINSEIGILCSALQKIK
The experiment in a line: Cell Based Phenylalanine Flux Assay. Details: scale not given here. Conditions: A375 cells expressing human R408W PAH, 13C-Tyrosine by LC-MS, average where tested multiple times.

Where [1] appears, read: 24 hrs compound incubation, read-out: AC50.
Where [2] appears, read: 24 hrs with compound, read-out: AC50.

Where two headings read alike, the source gives them in different places.

The AC50 is the concentration at which the activity in the assay is half-maximal. As for `O=C(c1oc(C2CC2)nc1C(F)F)N1CCc2[nH]cnc2[C@@H]1c1nc2c(F)cccc2s1` [Example 1572, (R)-(2-cyclopropyl-4-(difluoromethyl)oxazol-5-yl)(4-(4-fluorobenzo[d]thiazol-2-yl)-6,7-dihydro-1H-imidazo[4,5-c]pyridin-5(4H)-yl)methanone], the AC50 under setting [1] lay in the range of 500 to 1000 nM.

For the compound `O=C(CCc1ccc(F)cc1)N1CCc2[nH]cnc2[C@@H]1c1nc2ccccc2s1` [Example 1006, (R)-1-(4-(benzo[d]thiazol-2-yl)-6,7-dihydro-1H-imidazo[4,5-c]pyridin-5(4H)-yl)-3-(4-fluorophenyl)propan-1-one], under setting [1], the AC50 was greater than 5000 nM.

Take `Cc1nc([C@@H](C)O)oc1C(=O)N1CCc2[nH]cnc2[C@@H]1c1nc2c(F)cccc2s1` [Example 1930, ((R)-4-(4-fluorobenzo[d]thiazol-2-yl)-6,7-dihydro-1H-imidazo[4,5-c]pyridin-5(4H)-yl)(2-((R)-1-hydroxyethyl)-4-methyloxazol-5-yl)methanone]: under setting [1], the AC50 is 1000 to 5000 nM.

As to `O=C(Cc1nc(C(F)(F)F)cs1)N1CCc2[nH]cnc2C1c1nc2cc(F)ccc2s1` (centres unmarked), the AC50 under setting [2] lay within 1000 to 5000 nM.

`O=C(CCc1nccs1)N1CCc2[nH]cnc2[C@@H]1c1ncc(-c2ccccc2)s1` [Example 2142, (R)-1-(4-(5-phenylthiazol-2-yl)-6,7-dihydro-1H-imidazo[4,5-c]pyridin-5(4H)-yl)-3-(thiazol-2-yl)propan-1-one]: the AC50 under setting [1] was greater than 5000 nM.

`O=C(c1cnn2ccc(Cl)cc12)N1CCc2[nH]cnc2[C@@H]1c1nc2cc(F)ccc2s1` [Example 1168, (R)-(5-chloropyrazolo[1,5-a]pyridin-3-yl)(4-(5-fluorobenzo[d]thiazol-2-yl)-6,7-dihydro-1H-imidazo[4,5-c]pyridin-5(4H)-yl)methanone]: the AC50 under setting [1] is 1000 to 5000 nM.

With `Cc1ccc(-c2nnc(C(=O)N3CCc4[nH]cnc4[C@@H]3c3nc4ccccc4s3)o2)nc1` [Example 1879, (R)-(4-(benzo[d]thiazol-2-yl)-6,7-dihydro-1H-imidazo[4,5-c]pyridin-5(4H)-yl)(5-(5-methylpyridin-2-yl)-1,3,4-oxadiazol-2-yl)methanone], the AC50 under setting [1] is 1000 to 5000 nM.

On to `O=C(c1ccno1)N1CCc2[nH]cnc2[C@H]1c1nc2cc(F)ccc2s1` [Example 2153, (S)-(4-(5-fluorobenzo [d]thiazol-2-yl)-6,7-dihydro-1H-imidazo[4,5-c]pyridin-5(4H)-yl) (iso xazol-5-yl)methanone], for which the AC50 under setting [1] lay in the range of 1000 to 5000 nM.

As for `Cc1ncc(C(=O)N2CCc3[nH]cnc3C2c2nc3ccccc3s2)o1` (centres unmarked), under setting [2], the AC50 is greater than 5000 nM.

`Cc1nc(C(C)(C)C)oc1C(=O)N1CCc2[nH]cnc2[C@H]1c1nc2ccccc2s1` [Example 1431]: the AC50 under setting [1] was less than 500 nM.

Consider `O=C(Cc1nccs1)N1CCc2[nH]cnc2C1c1nc2ccc(Br)cc2s1` (centres unmarked), for which the AC50 under setting [2] is greater than 5000 nM.

For the compound `Cc1nc(-c2ccccn2)oc1C(=O)N1CC2(CC2)c2[nH]cnc2[C@H]1c1nc2ccccc2s1` (single isomer, unassigned), under setting [2], the concentration at half-maximal activity (AC50) was 1000 to 5000 nM.

`O=C(c1oc(C2CC2)nc1C(F)(F)F)N1CCc2[nH]cnc2[C@@H]1c1nc2c(F)cccc2s1` [Example 2184, (R)-(2-cyclopropyl-4-(trifluoromethyl)oxazol-5-yl)(4-(4-fluorobenzo[d]thiazol-2-yl)-1,4,6,7-tetrahydro-5H-imidazo[4,5-c]pyridin-5-yl)methanone]: the AC50 under setting [1] is less than 500 nM.

With `Cc1nnc(CCC(=O)N2CCc3[nH]cnc3C2c2nc3cccc(F)c3s2)s1` (centres unmarked), under setting [2], the AC50 was greater than 5000 nM.

Consider `Cn1cc(-c2cnc(CC(=O)N3CCc4[nH]cnc4C3c3nc4ccccc4s3)s2)cn1` (centres unmarked), for which the AC50 under setting [2] is 1000 to 5000 nM.

For `O=C(Cn1cncn1)N1CCc2[nH]cnc2C1c1nc2ccccc2s1` (centres unmarked), under setting [2], the AC50 was greater than 5000 nM.

Consider `O=C(c1nccs1)N1CCc2[nH]cnc2[C@H]1c1nc2c(Cl)cccc2s1` [Example 1201, (S)-(4-(4-chlorobenzo[d]thiazol-2-yl)-6,7-dihydro-1H-imidazo[4,5-c]pyridin-5(4H)-yl)(thiazol-2-yl)methanone], for which, under setting [1], the AC50 lay in the range of 1000 to 5000 nM.

For `O=C(c1ccc2ncsc2c1)N1CCc2[nH]cnc2C1c1nc2ccccc2[nH]1` (centres unmarked), under setting [2], the AC50 fell in the range of 1000 to 5000 nM.

On to `Cc1ncoc1C(=O)N1CC2(CC2)c2[nH]cnc2C1c1nc2c(F)cccc2s1` (centres unmarked), for which the AC50 under setting [2] was greater than 5000 nM.

On to `Cc1nc(C(C)(C)F)oc1C(=O)N1CCc2[nH]cnc2[C@@H]1c1nc2c(F)cccc2s1` [Example 1500, (R)-(4-(4-fluorobenzo[d]thiazol-2-yl)-6,7-dihydro-1H-imidazo[4,5-c]pyridin-5(4H)-yl)(2-(2-fluoropropan-2-yl)-4-methyloxazol-5-yl)methanone], for which, under setting [1], the half-maximal activity concentration (AC50) lay in the range of 500 to 1000 nM.

`CC(C)n1ncc(C(=O)N2CCc3[nH]cnc3[C@H]2c2nc3c(F)cccc3s2)c1Cl` [Example 1951]: the AC50 under setting [1] fell in the range of 500 to 1000 nM.

On to `O=C(c1cn(CC(F)(F)F)nc1Cl)N1CCc2[nH]cnc2[C@H]1c1nc2c(F)cccc2s1` [Example 1764, (S)-(3-chloro-1-(2,2,2-trifluoroethyl)-1H-pyrazol-4-yl)(4-(4-fluorobenzo[d]thiazol-2-yl)-6,7-dihydro-1H-imidazo[4,5-c]pyridin-5(4H)-yl)methanone], for which the half-maximal activity concentration (AC50) under setting [1] was 500 to 1000 nM.

As to `CN(C)Cc1ncc(C(=O)N2CCc3[nH]cnc3C2c2nc3ccccc3s2)o1` (centres unmarked), the AC50 under setting [2] lay in the range of 1000 to 5000 nM.

In the case of `O=C(c1nnc(-c2ccccn2)o1)N1CC2(CC2)c2[nH]cnc2[C@H]1c1nc2ccccc2s1` [Example 1684, (S)-(4′-(benzo[d]thiazol-2-yl)spiro[cyclopropane-1,7′-imidazo[4,5-c]pyridin]-5′(1′H,4′H,6′H)-yl)(5-(pyridin-2-yl)-1,3,4-oxadiazol-2-yl)methanone], the AC50 under setting [1] is less than 500 nM.

In the case of `O=C(c1cncs1)N1CCc2[nH]cnc2[C@H]1c1nc2cccc(F)c2s1` [Example 1233, (S)-(4-(7-fluorobenzo[d]thiazol-2-yl)-6,7-dihydro-1H-imidazo[4,5-c]pyridin-5(4H)-yl)(thiazol-5-yl)methanone], the AC50 under setting [1] is 500 to 1000 nM.

On to `O=C(c1ncc(Cl)s1)N1CCc2[nH]cnc2C1c1nc2ccc(F)cc2s1` (centres unmarked), for which the half-maximal activity concentration (AC50) under setting [2] is greater than 5000 nM.

For `O=C(c1cnn2ccc(Cl)cc12)N1CCc2[nH]cnc2[C@@H]1c1nc2ccc(F)cc2s1` [Example 1152, (R)-(5-chloropyrazolo[1,5-a]pyridin-3-yl)(4-(6-fluorobenzo[d]thiazol-2-yl)-6,7-dihydro-1H-imidazo[4,5-c]pyridin-5(4H)-yl)methanone], under setting [1], the AC50 was greater than 5000 nM.

With `O=C(c1cnn2cc(Br)ccc12)N1CCc2[nH]cnc2[C@H]1c1nc2c(F)cccc2s1` [Example 1235], under setting [1], the AC50 is 500 to 1000 nM.

For the compound `Cc1ccc2c(C(=O)N3CCc4[nH]cnc4[C@H]3c3nc4ccccc4[nH]3)cnn2c1` [(S)-(4-(1H-benzo[d]imidazol-2-yl)-6,7-dihydro-1H-imidazo[4,5-c]pyridin-5(4H)-yl)(6-methylpyrazolo[1,5-a]pyridin-3-yl)methanone], under setting [2], the AC50 lay in the range of 1000 to 5000 nM.

As for `CC(O)c1nc(Cl)c(C(=O)N2CCc3[nH]cnc3[C@@H]2c2nc3c(F)cccc3s2)o1` (single isomer, unassigned) [Example 2082], the AC50 under setting [1] fell in the range of 1000 to 5000 nM.

For the compound `Cn1nc(C(C)(C)C#N)nc1C(=O)N1CCc2[nH]cnc2[C@@H]1c1nc2c(F)cccc2s1` [Example 2048, (R)-2-(5-(4-(4-fluorobenzo[d]thiazol-2-yl)-4,5,6,7-tetrahydro-1H-imidazo[4,5-c]pyridine-5-carbonyl)-1-methyl-1H-1,2,4-triazol-3-yl)-2-methylpropanenitrile], under setting [1], the AC50 is 1000 to 5000 nM.

`O=C(c1oc(CCN2CC(F)C2)nc1C(F)(F)F)N1CCc2[nH]cnc2[C@H]1c1nc2c(F)cccc2s1` [Example 1665]: the half-maximal activity concentration (AC50) under setting [1] was less than 500 nM.

In the case of `Cc1c(-c2ncc(C(=O)N3CCc4[nH]cnc4[C@H]3c3nc4ccccc4s3)s2)cnn1C` [Example 1359], the AC50 under setting [1] is less than 500 nM.

Take `COCc1ccc2c(C(=O)N3CCc4[nH]cnc4C3c3nc4ccccc4s3)c(C(F)F)nn2c1` (centres unmarked): the concentration at half-maximal activity (AC50) entry (24 hrs with compound) was “E, E”.

For the compound `O=C(c1ocnc1C(F)F)N1CCc2[nH]cnc2[C@@H]1c1nc2c(F)cccc2s1` [Example 1616, (R)-(4-(difluoromethyl)oxazol-5-yl)(4-(4-fluorobenzo[d]thiazol-2-yl)-6,7-dihydro-1H-imidazo[4,5-c]pyridin-5(4H)-yl)methanone], the AC50 under setting [1] lay within 500 to 1000 nM.

For the compound `O=C(c1oc(CCC2CC2)nc1C(F)(F)F)N1CCc2[nH]cnc2[C@H]1c1nc2ccccc2s1` [Example 1579], under setting [1], the AC50 is less than 500 nM.

Consider `O=C(Cc1cscn1)N1CCc2[nH]cnc2C1c1nc2ccccc2s1` (centres unmarked), for which, under setting [2], the AC50 is greater than 5000 nM.

For the compound `Cc1nc(C(C)(C)O)oc1C(=O)N1CCCc2[nH]cnc2C1c1nc2ccccc2s1` (centres unmarked), under setting [2], the AC50 is greater than 5000 nM.

With `Cc1nc(C2CC2)oc1C(=O)N1CCc2[nH]cnc2[C@@H]1c1nc2c(F)cccc2s1` [Example 1528, (R)-(2-cyclopropyl-4-methyloxazol-5-yl)(4-(4-fluorobenzo[d]thiazol-2-yl)-6,7-dihydro-1H-imidazo[4,5-c]pyridin-5(4H)-yl)methanone], the AC50 under setting [1] was 1000 to 5000 nM.

For `O=C(C1CN(CC(F)(F)F)C1)N1CCc2[nH]cnc2[C@H]1c1nc2ccccc2s1` (single isomer, unassigned), under setting [2], the half-maximal activity concentration (AC50) is 1000 to 5000 nM.

In the case of `CN(C)CCc1nc(C(F)(F)F)c(C(=O)N2CCCc3[nH]cnc3[C@H]2c2nc3ccccc3s2)o1` (single isomer, unassigned) [Example 2125], under setting [1], the AC50 is 500 to 1000 nM.

The record behind these values is US20250171438A1 (Agios Pharmaceuticals, Inc., priority 2022, published 2025).
